Patent US12435044B2, “Pyridazinone herbicides and pyridazinone intermediates used to prepare a herbicide” (FMC Corporation, priority 2018, dated 2025)

Tests used:
Experiment in all cases: Test E pre-/postemergence greenhouse test
Assay type in all cases: in vivo
[1] = tested on: foxtail, green (Setaria viridis); details: Preemergence
Description: (§1) Seeds of plant species selected from corn (Zea mays), soybean (Glycine max), velvetleaf (Abutilon theophrasti), lambsquarters (Chenopodium album), poinsettia, wild (Euphorbia heterophylla), pigweed, palmer (Amaranthus palmeri), waterhemp (common waterhemp, Amaranthus rudis), surinam grass (Brachiaria decumbens), crabgrass, large (Digitaria sanguinalis), crabgrass, Brazil (Digitaria horizontalis), panicum, fall (Panicum dichotomiflorum), foxtail, giant (Setaria faberii), foxtail, green (Setaria viridis), goosegrass (Eleusine indica), johnsongrass (Sorghum halepense), ragweed (common ragweed, Ambrosia elatior), barnyardgrass (Echinochloa crus-galli), sandbur (southern sandbur, Cenchrus echinatus), arrowleaf sida (Sida rhombifolia), ryegrass, Italian (Lolium multiflorum), dayflower, VA (Virginia (VA) dayflower, Commelina virginica), field bindweed (Convolvulus arvensis), morningglory (Ipomoea coccinea), horseweed (Conyza canadensis), kochia (Kochia scoparia), nutsedge, yellow (Cyperus esculentus) and hairy beggarticks (Bidenspilosa), were planted into a silt loam soil and treated preemergence with test chemicals formulated in a non-phytotoxic solvent mixture which included a surfactant.
(§2) At the same time, plants selected from these crop and weed species and also waterhemp_RES1, (ALS & Triazine resistant common waterhemp, Amaranthus rudis), and waterhemp_RES2, (ALS & HPPD resistant common waterhemp, Amaranthus rudis) were planted in pots containing Redi-Earth® planting medium (Scotts Company, 14111 Scottslawn Road, Marysville, Ohio 43041) comprising spaghnum peat moss, vermiculite, wetting agent and starter nutrients were treated with postemergence applications of test chemicals formulated in the same manner. Plants ranged in height from 2 to 18 cm for postemergence treatments (1- to 4-leaf stage). Treated plants and controls were maintained in a greenhouse for 14 to 21 d, after which time all species were compared to controls and visually evaluated. Plant response ratings, summarized in Table E, are based on a scale of 0 to 100 where 0 is no effect and 100 is complete control. A dash (-) response means no test result.

[2] = tested on: lambsquarters (Chenopodium album); details: Preemergence
Description: as §1, §2

[3] = tested on: ryegrass, Italian (Lolium multiflorum)
Description: as §1, §2

[4] = tested on: sandbur (southern sandbur, Cenchrus echinatus)
Description: as §1, §2

[5] = tested on: goosegrass (Eleusine indica); details: Preemergence
Description: as §1, §2

[6] = tested on: johnsongrass (Sorghum halepense); details: Preemergence
Description: as §1, §2

[7] = tested on: nutsedge, yellow (Cyperus esculentus); details: Preemergence
Description: as §1, §2

[8] = tested on: poinsettia, wild (Euphorbia heterophylla)
Description: as §1, §2

[9] = tested on: crabgrass, Brazil (Digitaria horizontalis)
Description: as §1, §2

[10] = tested on: arrowleaf sida (Sida rhombifolia)
Description: as §1, §2

[11] = tested on: hairy beggarticks (Bidenspilosa)
Description: as §1, §2

[12] = tested on: dayflower, VA (Virginia (VA) dayflower, Commelina virginica)
Description: as §1, §2

[13] = tested on: field bindweed (Convolvulus arvensis)
Description: as §1, §2

[14] = tested on: morningglory (Ipomoea coccinea); details: Preemergence
Description: as §1, §2

kochia (Kochia scoparia) = tested on: kochia (Kochia scoparia)
Description: as §1, §2

Cc1ccc2ccc(C)c(-c3c(O)c(Cl)nn(C)c3=O)c2c1 [Cpd. No. 20, 6-chloro-4-(2,7-dimethyl-1-naphthalenyl)-5-hydroxy-2-methyl-3(2H)-pyridazinone]
50: Plant response rating, Johnsongrass ([6]; 125 g ai/ha) | Plant response rating, Poinsettia, Wild ([8]; Postemergence, 31 g ai/ha) | Plant response rating, Poinsettia, Wild ([8]; Postemergence, 125 g ai/ha) | Plant response rating, Dayflower, VA ([12]; Postemergence, 31 g ai/ha) | Plant response rating, Kochia (kochia (Kochia scoparia); Preemergence, 31 g ai/ha)
0: Plant response rating, Ryegrass, Italian ([3]; Preemergence, 16 g ai/ha) | Plant response rating, Goosegrass ([5]; 16 g ai/ha) | Plant response rating, Goosegrass ([5]; 31 g ai/ha) | Plant response rating, Johnsongrass ([6]; 16 g ai/ha) | Plant response rating, Johnsongrass ([6]; 31 g ai/ha) | Plant response rating, Poinsettia, Wild ([8]; Preemergence, 16 g ai/ha) | Plant response rating, Poinsettia, Wild ([8]; Preemergence, 31 g ai/ha) | Plant response rating, Poinsettia, Wild ([8]; Preemergence, 62 g ai/ha) | Plant response rating, Poinsettia, Wild ([8]; Preemergence, 125 g ai/ha) | Plant response rating, Dayflower, VA ([12]; Preemergence, 16 g ai/ha) | Plant response rating, Dayflower, VA ([12]; Preemergence, 31 g ai/ha) | Plant response rating, Dayflower, VA ([12]; Preemergence, 62 g ai/ha) | Plant response rating, Kochia (kochia (Kochia scoparia); Preemergence, 16 g ai/ha)
40: Plant response rating, Poinsettia, Wild ([8]; Postemergence, 62 g ai/ha) | Plant response rating, Crabgrass, Brazil ([9]; Postemergence, 31 g ai/ha)
85: Plant response rating, Ryegrass, Italian ([3]; Postemergence, 62 g ai/ha) | Plant response rating, Sandbur ([4]; Postemergence, 125 g ai/ha) | Plant response rating, Sandbur ([4]; Preemergence, 62 g ai/ha) | Plant response rating, Crabgrass, Brazil ([9]; Postemergence, 125 g ai/ha) | Plant response rating, Arrowleaf Sida ([10]; Preemergence, 125 g ai/ha) | Plant response rating, Field Bindweed ([13]; Preemergence, 31 g ai/ha) | Plant response rating, Kochia (kochia (Kochia scoparia); Preemergence, 125 g ai/ha)
20: Plant response rating, Poinsettia, Wild ([8]; Postemergence, 16 g ai/ha) | Plant response rating, Crabgrass, Brazil ([9]; Postemergence, 16 g ai/ha) | Plant response rating, Beggarticks ([11]; Preemergence, 16 g ai/ha) | Plant response rating, Morningglory ([14]; 31 g ai/ha)
25: Plant response rating, Ryegrass, Italian ([3]; Preemergence, 31 g ai/ha)
98: Plant response rating, Lambsquarters ([2]; 62 g ai/ha) | Plant response rating, Ryegrass, Italian ([3]; Preemergence, 62 g ai/ha)
75: Plant response rating, Sandbur ([4]; Preemergence, 31 g ai/ha) | Plant response rating, Goosegrass ([5]; 125 g ai/ha) | Plant response rating, Nutsedge, Yellow ([7]; 62 g ai/ha) | Plant response rating, Nutsedge, Yellow ([7]; 125 g ai/ha) | Plant response rating, Crabgrass, Brazil ([9]; Preemergence, 16 g ai/ha) | Plant response rating, Arrowleaf Sida ([10]; Postemergence, 125 g ai/ha) | Plant response rating, Field Bindweed ([13]; Postemergence, 16 g ai/ha) | Plant response rating, Kochia (kochia (Kochia scoparia); Postemergence, 31 g ai/ha)
80: Plant response rating, Foxtail, Green ([1]; 31 g ai/ha) | Plant response rating, Lambsquarters ([2]; 16 g ai/ha) | Plant response rating, Ryegrass, Italian ([3]; Postemergence, 31 g ai/ha) | Plant response rating, Arrowleaf Sida ([10]; Preemergence, 62 g ai/ha) | Plant response rating, Kochia (kochia (Kochia scoparia); Postemergence, 16 g ai/ha) | Plant response rating, Kochia (kochia (Kochia scoparia); Postemergence, 62 g ai/ha)
15: Plant response rating, Nutsedge, Yellow ([7]; 31 g ai/ha)
60: Plant response rating, Sandbur ([4]; Postemergence, 16 g ai/ha) | Plant response rating, Sandbur ([4]; Postemergence, 31 g ai/ha) | Plant response rating, Crabgrass, Brazil ([9]; Postemergence, 62 g ai/ha) | Plant response rating, Arrowleaf Sida ([10]; Postemergence, 16 g ai/ha) | Plant response rating, Dayflower, VA ([12]; Postemergence, 62 g ai/ha) | Plant response rating, Morningglory ([14]; 62 g ai/ha)
30: Plant response rating, Sandbur ([4]; Preemergence, 16 g ai/ha) | Plant response rating, Goosegrass ([5]; 62 g ai/ha) | Plant response rating, Dayflower, VA ([12]; Postemergence, 16 g ai/ha)
95: Plant response rating, Lambsquarters ([2]; 31 g ai/ha) | Plant response rating, Ryegrass, Italian ([3]; Preemergence, 125 g ai/ha) | Plant response rating, Beggarticks ([11]; Postemergence, 31 g ai/ha) | Plant response rating, Beggarticks ([11]; Postemergence, 62 g ai/ha) | Plant response rating, Beggarticks ([11]; Preemergence, 62 g ai/ha)
35: Plant response rating, Foxtail, Green ([1]; 16 g ai/ha)
70: Plant response rating, Ryegrass, Italian ([3]; Postemergence, 16 g ai/ha) | Plant response rating, Sandbur ([4]; Postemergence, 62 g ai/ha) | Plant response rating, Arrowleaf Sida ([10]; Postemergence, 31 g ai/ha) | Plant response rating, Arrowleaf Sida ([10]; Postemergence, 62 g ai/ha) | Plant response rating, Dayflower, VA ([12]; Postemergence, 125 g ai/ha) | Plant response rating, Kochia (kochia (Kochia scoparia); Preemergence, 62 g ai/ha)
5: Plant response rating, Dayflower, VA ([12]; Preemergence, 125 g ai/ha) | Plant response rating, Field Bindweed ([13]; Preemergence, 16 g ai/ha)
10: Plant response rating, Nutsedge, Yellow ([7]; 16 g ai/ha) | Plant response rating, Morningglory ([14]; 16 g ai/ha)
100: Plant response rating, Foxtail, Green ([1]; 62 g ai/ha) | Plant response rating, Foxtail, Green ([1]; 125 g ai/ha) | Plant response rating, Lambsquarters ([2]; 125 g ai/ha) | Plant response rating, Crabgrass, Brazil ([9]; Preemergence, 62 g ai/ha) | Plant response rating, Crabgrass, Brazil ([9]; Preemergence, 125 g ai/ha) | Plant response rating, Beggarticks ([11]; Postemergence, 125 g ai/ha) | Plant response rating, Beggarticks ([11]; Preemergence, 125 g ai/ha) | Plant response rating, Field Bindweed ([13]; Preemergence, 125 g ai/ha) | Plant response rating, Morningglory ([14]; 125 g ai/ha)
90: Plant response rating, Ryegrass, Italian ([3]; Postemergence, 125 g ai/ha) | Plant response rating, Sandbur ([4]; Preemergence, 125 g ai/ha) | Plant response rating, Crabgrass, Brazil ([9]; Preemergence, 31 g ai/ha) | Plant response rating, Arrowleaf Sida ([10]; Preemergence, 16 g ai/ha) | Plant response rating, Arrowleaf Sida ([10]; Preemergence, 31 g ai/ha) | Plant response rating, Beggarticks ([11]; Postemergence, 16 g ai/ha) | Plant response rating, Beggarticks ([11]; Preemergence, 31 g ai/ha) | Plant response rating, Field Bindweed ([13]; Postemergence, 31 g ai/ha) | Plant response rating, Field Bindweed ([13]; Postemergence, 62 g ai/ha) | Plant response rating, Field Bindweed ([13]; Postemergence, 125 g ai/ha) | Plant response rating, Field Bindweed ([13]; Preemergence, 62 g ai/ha) | Plant response rating, Kochia (kochia (Kochia scoparia); Postemergence, 125 g ai/ha)
